Measured values as given in patent US7098343B2, “Compound” (Sterix, Limited, priority 2001, dated 2006).

Tests used:
uterus = conditions: cited from earlier work
steroid sulphatase [1] = target: T1, steroid sulphatase (Homo sapiens, UniProt P08842); conditions: cited from earlier work
T1 sequence (P08842 22-583): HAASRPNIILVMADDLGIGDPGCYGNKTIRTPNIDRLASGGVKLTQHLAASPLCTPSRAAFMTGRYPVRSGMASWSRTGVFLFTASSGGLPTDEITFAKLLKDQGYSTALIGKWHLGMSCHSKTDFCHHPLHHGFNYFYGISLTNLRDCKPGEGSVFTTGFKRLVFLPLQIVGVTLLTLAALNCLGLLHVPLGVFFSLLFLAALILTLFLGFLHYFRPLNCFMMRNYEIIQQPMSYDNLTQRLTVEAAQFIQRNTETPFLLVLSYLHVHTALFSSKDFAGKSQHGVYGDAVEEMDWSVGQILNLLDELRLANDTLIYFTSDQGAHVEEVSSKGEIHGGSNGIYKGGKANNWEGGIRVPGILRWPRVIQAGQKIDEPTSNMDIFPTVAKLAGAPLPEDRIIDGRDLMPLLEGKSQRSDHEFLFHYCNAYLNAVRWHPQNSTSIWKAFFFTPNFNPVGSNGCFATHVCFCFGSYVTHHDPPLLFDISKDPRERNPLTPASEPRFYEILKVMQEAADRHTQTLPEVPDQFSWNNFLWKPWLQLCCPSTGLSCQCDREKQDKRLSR

aromatase = target: T2, aromatase (Homo sapiens, UniProt P11511); assay: Aromatase activity in JEG3 choriocarcinoma cells (Protocol 6); type: cell-based
T2 construct: Aromatase activity is measured in JEG3 choriocarcinoma cells, obtained from the ATCC; host or cells: JEG3 choriocarcinoma cells (intact monolayers)
T2 sequence (P11511 1-503): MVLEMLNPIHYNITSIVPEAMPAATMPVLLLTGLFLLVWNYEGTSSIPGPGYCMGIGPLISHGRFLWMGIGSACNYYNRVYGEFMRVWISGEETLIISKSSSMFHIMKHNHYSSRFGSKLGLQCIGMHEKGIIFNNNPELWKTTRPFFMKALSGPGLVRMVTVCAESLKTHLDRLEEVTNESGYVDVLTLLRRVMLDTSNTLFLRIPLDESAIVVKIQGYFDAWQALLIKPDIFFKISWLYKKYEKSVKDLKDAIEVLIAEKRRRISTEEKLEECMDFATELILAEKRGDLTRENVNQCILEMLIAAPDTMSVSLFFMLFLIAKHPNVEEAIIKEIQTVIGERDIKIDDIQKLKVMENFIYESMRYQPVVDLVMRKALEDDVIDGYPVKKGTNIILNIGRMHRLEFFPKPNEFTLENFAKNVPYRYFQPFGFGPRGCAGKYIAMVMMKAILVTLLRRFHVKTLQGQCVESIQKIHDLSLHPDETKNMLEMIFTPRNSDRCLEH

E1-STS = target: T3, E1-STS (Homo sapiens, UniProt P08842); conditions: 0.1 nM; cited from earlier work
T3 construct: host or cells: intact MCF-7 cells (endogenous enzyme)
T3 sequence (P08842 22-583): T1 sequence (P08842 22-583)

rat liver E1-STS = target: T4, rat liver E1-STS (Rattus norvegicus, UniProt P15589); conditions: administered orally or subcutaneously; cited from earlier work
T4 construct: host or cells: rat liver after oral or subcutaneous dosing
T4 sequence (P15589 20-577): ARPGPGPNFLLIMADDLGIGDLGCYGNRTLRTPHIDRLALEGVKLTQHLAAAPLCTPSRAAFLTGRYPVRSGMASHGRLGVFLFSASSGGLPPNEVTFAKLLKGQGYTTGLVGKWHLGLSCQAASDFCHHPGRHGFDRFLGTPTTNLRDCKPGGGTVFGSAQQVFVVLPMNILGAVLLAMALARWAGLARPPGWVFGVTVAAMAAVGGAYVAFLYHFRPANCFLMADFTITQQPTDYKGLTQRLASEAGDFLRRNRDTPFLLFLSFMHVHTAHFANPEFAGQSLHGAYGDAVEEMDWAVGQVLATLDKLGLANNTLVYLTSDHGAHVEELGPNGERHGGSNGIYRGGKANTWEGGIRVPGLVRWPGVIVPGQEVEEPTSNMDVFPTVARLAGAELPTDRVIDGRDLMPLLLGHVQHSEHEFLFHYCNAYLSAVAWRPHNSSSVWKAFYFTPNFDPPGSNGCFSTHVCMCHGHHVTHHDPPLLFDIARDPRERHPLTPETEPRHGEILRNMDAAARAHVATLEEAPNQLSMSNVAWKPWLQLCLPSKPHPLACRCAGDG

rat liver DHA-STS = target: T5, rat liver DHA-STS (Rattus norvegicus, UniProt P15589); conditions: administered orally or subcutaneously; cited from earlier work
T5 construct: host or cells: rat liver after oral or subcutaneous dosing
T5 sequence (P15589 20-577): T4 sequence (P15589 20-577)

steroid sulphatase [2] = target: T1, steroid sulphatase; assay: Inhibition of steroid sulphatase activity in placental microsomes (Protocol 2); type: biochemical; set-up: host or cells: JEG3 choriocarcinoma cells (intact monolayers); conditions: read-out: SULPHATASE % inhibition at 10 μM in placental microsomes
Protocol: Inhibition of Steroid Sulphatase Activity in Placental Microsomes
Sulphatase-positive human placenta from normal term pregnancies are thoroughly minced with scissors and washed once with cold phosphate buffer (pH 7.4, 50 mM) then re-suspended in cold phosphate buffer (5 ml/g tissue). Homogenisation is accomplished with an Ultra-Turrax homogeniser, using three 10 second bursts separated by 2 minute cooling periods in ice. Nuclei and cell debris are removed by centrifuging (4° C.) at 2000 g for 30 minutes and portions (2 ml) of the supernatant are stored at […] The protein concentration of the supernatants is determined by the method of Bradford (Anal. Biochem., 72, 248-254 (1976)).
Incubations (1 ml) are carried out using a protein concentration of […], substrate concentration of […] [6,7-3H]oestrone-3-sulphate (specific activity 60 Ci/mmol from New England Nuclear, Boston, Mass., U.S.A.) and an incubation time of 20 minutes at 37° C. […] A portion (2 ml) of the organic phase was removed, evaporated and the 3H and 14C content of the residue determined by scintillation spectrometry. The mass of oestrone-3-sulphate hydrolysed is calculated from the 3H counts obtained (corrected for the volumes of the medium and organic phase used, and for recovery of [14C]oestrone added) and the specific activity of the substrate.

Molecule: COc1cc2c(cc1OS(N)(=O)=O)CC[C@@H]1[C@@H]2CC[C@]2(C)C(=O)CC[C@@H]12 [2-methoxyoestrone-3-O-sulphamate]
- oestrogenicity, in words (uterus; rat, in vivo): devoid of oestrogenicity
- steroid sulphatase inhibition relative to EMATE, in words (steroid sulphatase [1]): equipotent with EMATE

Molecule: NS(=O)(=O)Oc1ccc(-c2cc(=O)c3cc(OS(N)(=O)=O)ccc3o2)cc1 [Compound H342F1]
- AROMATASE inhibition, in words (aromatase): (No inhibition seen)

Molecule: CC12CCC3c4ccc(OS(N)(=O)=O)cc4CCC3C1CCC2=O (centres unmarked) [EMATE, oestrone-3-O-sulphamate]
- inhibition of E1-STS activity in intact MCF-7 cells (E1-STS): more than 99%
- inhibition of rat liver E1-STS activity (rat liver E1-STS): 99%
- inhibition of rat liver DHA-STS activity (rat liver DHA-STS): 99%
- oral uterotrophic activity relative to estradiol (uterus; rats, oral): 100 times

Molecule: N#Cc1ccc(N(Cc2ccc(O)cc2)n2cnnc2)cc1 [STX265, 4-[(4-Hydroxylbenzyl)-[1,2,4]triazol-4-ylamino]benzonitrile]
- melting point: 228 to 230 °C

Molecule: NS(=O)(=O)Oc1ccc(Cn2cncn2)cc1 [STX270, Sulfamic Acid 4-[1,2,4]triazol-1-ylmethylphenyl ester]
- inhibition at 10 µM (steroid sulphatase [2]): 14%

Molecule: oestrone-3-N-sulphamate
- steroid sulphatase inhibition relative to EMATE, in words (steroid sulphatase [1]): weaker non-time-dependent inactivators

Molecule: oestrone-3-S-sulphamate
- steroid sulphatase inhibition relative to EMATE, in words (steroid sulphatase [1]): weaker non-time-dependent inactivators
